Results taken from ChEMBL document CHEMBL1146482, “Natural products from endophytic microorganisms” (J Nat Prod, 2004).
In brackets after ≈: the same amount, converted by molar mass.

Assays:
Lymphocyte = assay: Immunosuppressive activity in lymphocytes by mixed lymphocyte reaction assay; format: functional, cell-based
Thymocyte = assay: Immunosuppressive activity in thymocytes by thymocyte proliferation assay; format: functional, cell-based
Plasmodium falciparum = assay: Antiplasmodial activity against Plasmodium falciparum; format: functional; conditions: read-out: LD50 (the source's name)
Bacillus anthracis = assay: Antimicrobial activity against Bacillus anthracis; format: functional

Row | SMILES | IC50 (Lymphocyte) | IC50 (Thymocyte) | LC50 (Plasmodium falciparum) | MIC (Bacillus anthracis)
1 | C=C1CC[C@H]2[C@]3(C)C[C@@H](C=C(C)C)O[C@H]3CC[C@]2(C)[C@@H]1Cc1c(O)c(C)c(C)oc1=O [SUBGLUTINOL A] | 100 nM | 100 nM |  | 
2 | CS[C@H]1SC[C@H]2C(=O)N(C)[C@@H](C(C)C)C(=O)OC[C@@H](NC(=O)c3cnc4ccccc4n3)C(=O)N[C@@H](C)C(=O)N(C)[C@@H]1C(=O)N(C)[C@@H](C(C)C)C(=O)OC[C@@H](NC(=O)c1cnc3ccccc3n1)C(=O)N[C@@H](C)C(=O)N2C [ECHINOMYCIN] |  |  | 0.007 µg/mL (≈ 0.00636 µM) | 1 µg/mL (≈ 0.908 µM)
3 | C=C1CC[C@H]2[C@]3(C)C[C@H](C=C(C)C)O[C@H]3CC[C@]2(C)[C@@H]1Cc1c(O)c(C)c(C)oc1=O [SUBGLUTINOL B] | 100 nM | 100 nM |  | 
